# Data published in patent US8652473B2, “Antibodies to EGF receptor epitope peptides and uses thereof” (Ludwig Institute for Cancer Research Ltd., priority 2004, dated 2014).
# Tested on: mAb 806 binding to immobilized 1-501 EGFR fragment
# Assay: ELISA, peptide inhibition of mAb […] binding to 1-501 EGFR
# Parameters: species or system human
# Details: peptide in solution, increasing concentrations
row,Substance,inhibition of mAb […] binding to immobilized 1-501 fragment (ELISA)
1,CGADSYEMEEDG (epitope peptide) [287-298 EGFR peptide],did not inhibit

# Tested on: mAb 806
# Assay: Binding of yeast surface displayed EGFR 273-621 point mutants to mAb […] (flow cytometry)
# Parameters: species or system mouse; key: ++ indicates wild type binding; +, intermediate binding; −, binding equal to negative control
# Details: EGFR Mutant (Library), 273-621 on yeast; 75 nM 806
# Method: Out of 100 clones sequenced, roughly 20% contained multiple mutations and were omitted from subsequent analysis. […] All mutations are localized to the disulfide-bonded loop between cysteines 287 and 302, as has been previously determined (34). […] To verify the results from the fine epitope mapping library, alanine scanning through site-directed mutagenesis (SDM) was performed on the entire loop 287-302 (TABLE 7, right column). All sites with loss of binding by alanine scanning (287, 293, 298, and 302) correspond to mutants isolated from the library. […] Since an average of 6-7 amino acid substitutions are accessible by single nucleotide mutagenesis, a larger range of physicochemical diversity can be sampled compared to alanine scanning. […] The C287R substitution raises this dissociation constant to 127 nM (68% confidence interval of 103-160 nM), which gives a ΔΔG value of +2.4 kcal/mol when compared to wild-type and, in alanine scanning terms, is an intermediate loss of binding (36).
# The epitope mapping library was constructed using the Stratagene GeneMorph® random mutagenesis kit to give a low mutagenesis rate. The template used for library construction was a pCT302 backbone containing EGFR fragment 273-621, with a C283A mutation to prevent disulfide mispairing, inserted for yeast display (27). The PCR products were gel purified and extracted using a Qiagen Qiaquick gel extraction kit. The library was transformed into Saccharomyces cerevisiae strain EBY100 (28) by electroporation (40) and homologous recombination (41) using a Bio-Rad (Richmond, Calif.) Gene Pulser Transfection Apparatus. […] Growth and expression of the library using yeast surface display was performed as previously described (28).
# Anti-c-myc chicken IgY fraction was purchased from Molecular Probes (Eugene, Oreg.). An appropriate number of yeast cells (at least 10× library size) were washed with FACS buffer (phosphate buffered saline containing 1 mg/ml bovine serum albumin). The cells were incubated with 4 μg/ml anti-c-myc chicken IgY and the appropriate concentration of mAb for 30 min at 25° C. The cells were then washed with FACS buffer and incubated with 1:25 dilution phycoerythrin-labeled goat anti-mouse IgG (Sigma) and 1:100 dilution Alexa Fluor® 488 goat anti-chicken IgG (Molecular Probes) for 30 min at 4° C. The labeled cells were rinsed, and cell libraries were sorted using a MoFlo FACS machine at the MIT flow cytometry core facility.
# Plasmids from the sorted library populations were recovered using Zymoprep™ and sequenced at the MIT Biopolymers Laboratory. Site-directed mutants were made using QuickChange® site-directed mutagenesis (Stratagene). Single clones were transformed into yeast using EZ Yeast Transformation (Zymo Research) and grown in minimal media (yeast nitrogen base, casein hydrolysate, dextrose, and phosphate buffer pH 7.4) overnight. Yeast surface protein expression was induced by transferring to minimal media with galactose and incubating overnight. For each clone, 1×10^6 cells were labeled as before with anti-c-myc chicken IgY, the appropriate mAb, and secondary fluorescent antibodies. Fluorescence data was obtained using a Coulter Epics XL flow cytometer (Beckman-Coulter) and was analyzed using DakoCytomation Summit™ software
row,Substance,mAb […] Binding
1,R300P: yeast displayed EGFR 273-621 point mutant from library,−
2,E293D: yeast displayed EGFR 273-621 point mutant from library,+
3,C302Y: yeast displayed EGFR 273-621 point mutant from library,+
4,C287W: yeast displayed EGFR 273-621 point mutant from library,+
5,C302G: yeast displayed EGFR 273-621 point mutant from library,−
6,E293K: yeast displayed EGFR 273-621 point mutant from library,−
7,G298D: yeast displayed EGFR 273-621 point mutant from library,−
8,C287R: yeast displayed EGFR 273-621 point mutant from library,+
9,R300C: yeast displayed EGFR 273-621 point mutant from library,+
10,D297Y: yeast displayed EGFR 273-621 point mutant from library,+
11,C287S: yeast displayed EGFR 273-621 point mutant from library,+
12,G298S: yeast displayed EGFR 273-621 point mutant from library,−
13,K301E: yeast displayed EGFR 273-621 point mutant from library,+
14,C302S: yeast displayed EGFR 273-621 point mutant from library,−
15,C287Y: yeast displayed EGFR 273-621 point mutant from library,+
16,C302F: yeast displayed EGFR 273-621 point mutant from library,+
17,E293G: yeast displayed EGFR 273-621 point mutant from library,+
18,C302R: yeast displayed EGFR 273-621 point mutant from library,+
19,C287G: yeast displayed EGFR 273-621 point mutant from library,+

# Same assay, conditions: EGFR Mutant (SDM) in loop 287-302, 273-621 on yeast; 75 nM 806
row,Substance,mAb […] Binding
1,G288A: yeast displayed EGFR 273-621 site-directed mutant,++
2,E293A: yeast displayed EGFR 273-621 site-directed mutant,+
3,K301A: yeast displayed EGFR 273-621 site-directed mutant,++
4,C302A: yeast displayed EGFR 273-621 site-directed mutant,−
5,S291A: yeast displayed EGFR 273-621 site-directed mutant,++
6,V299D: yeast displayed EGFR 273-621 site-directed mutant,−
7,E295A: yeast displayed EGFR 273-621 site-directed mutant,++
8,C287A: yeast displayed EGFR 273-621 site-directed mutant,+
9,D290A: yeast displayed EGFR 273-621 site-directed mutant,++
10,A289K: yeast displayed EGFR 273-621 site-directed mutant,++
11,D297A: yeast displayed EGFR 273-621 site-directed mutant,++
12,R300A: yeast displayed EGFR 273-621 site-directed mutant,++
13,G298A: yeast displayed EGFR 273-621 site-directed mutant,+
14,V299A: yeast displayed EGFR 273-621 site-directed mutant,++
15,M294A: yeast displayed EGFR 273-621 site-directed mutant,++
16,Y292A: yeast displayed EGFR 273-621 site-directed mutant,++
17,E296A: yeast displayed EGFR 273-621 site-directed mutant,++
18,V299K: yeast displayed EGFR 273-621 site-directed mutant,++

# Same assay, conditions: wild-type EGFR 273-621 on yeast; 75 nM 806
row,Substance,mAb […] binding score
1,wild-type 273-621: yeast surface displayed wild-type EGFR fragment 273-621,++

# Tested on: mAb 806 binding to immobilized 287-302 EGFR peptide
# Assay: BIAcore, soluble EGFR peptides blocking mAb […] binding
# Parameters: species or system human
# Details: mAb […] 500 nM; soluble peptide 5 and 10 μM; amine coupling
# Method: Analysis of mAb 806 binding to peptides by BIAcore. […] Binding affinity was then determined by Scatchard analysis (insert).
# A BIAcore 3000 was used for all experiments. The peptides containing the putative mAb 806 epitope were immobilised on a CM5 sensor chip using amine or thiol-disulphide exchange coupling at a flow rate of 5 μl/min (34). The 806 antibody was passed over the sensor surface at a flow rate of 5 μl/min at 25° C. The surfaces were generated between runs by injecting 10 mM HCl at a flow rate of 10 μl/min.
row,Substance,inhibition of mAb […] binding to immobilized 287-302 EGFR peptide (BIAcore)
1,CGADSYEMEEDGVRK (epitope peptide) [287-301 EGFR peptide],weakly inhibit
2,CGADSYEMEEDG (epitope peptide) [287-298 EGFR peptide],unable to prevent binding

# Tested on: mAb 806 binding to immobilized 501-Fc
# Assay: ELISA, peptide inhibition of mAb […] binding to 501-Fc
# Parameters: species or system human
# Details: increasing concentrations of peptide
row,Substance,inhibition of mAb […] binding to 501-Fc (ELISA)
1,"EEGVRKC (epitope peptide) [C-terminal (EEGVRKC), C-terminal fragment from cyanogen bromide cleavage of the 287-302 peptide]",incapable of inhibiting
2,CGADSYEM (epitope peptide) [N-terminal fragment from cyanogen bromide cleavage of the 287-302 peptide],incapable of inhibiting
